The source of these data is PMC3750255, “Inhibition of Mycoplasma pneumoniae growth by FDA-approved anticancer and antiviral nucleoside and nucleobase analogs” (BMC Microbiology, 2013).

The test system of test [1] is Mpn wild type cells. Description: Uptake and metabolism of tritium labelled natural nucleoside and nucleobases in the presence of analogs. It is filed as cell-based, Mycoplasma pneumoniae. The procedure:
The cells were harvested and analyzed essentially as described. Analogs used were dipyridamole, 6-thioguanine (6-TG), trifluorothymidine (TFT), gemcitabine (dFdC) and 5-fluorodeoxyuridine (5FdU). Total uptake is the percent of radioactivity recovered in the cells divided by total radioactivity added to the growth medium. Percent of acid insoluble (radioactivity found in DNA and RNA) was also calculated. These experiments were done more than three times and data are given as mean ± SD.

For test [2], the system named is M. pneumoniae thyA mutant (lacking TS activity). Description: microbe, parasite or virus in culture. Format: cell-based, Mycoplasma pneumoniae. The following applies: minimal concentration producing 90% inhibition; thyA mutant Mpn. The procedure:
(§1) A series dilution of each compound in Mycoplasma growth medium was added to Mpn cultures in 96-well plates. The plates were sealed and incubated at 37°C. Mpn growth was monitored by using growth index value e.g. the ratio of absorbance at 450 nm and 560 nm of the culture medium. Thirty nucleoside and nucleobase analogs and a nucleoside transporter inhibitor were included, and two Mpn strains, wild type and a thyA mutant (lacking TS activity), were used.
(§2) Nucleoside and nucleobase analogs were dissolved in dimethyl sulfoxide (DMSO) as stock solutions and diluted with Mpn culture medium to the desired concentration immediately prior to use.
(§3) Mpn laboratory strain M129 wild type and a thyA mutant strain [31] were used in this study. Mpn was cultured at 37°C in a CO2 incubator using 75 cm^2 tissue culture flasks containing 50 ml Hayflick’s medium, and harvested at day 4 when the medium color change was observed. The cells were harvested and the pellet was resuspended in 6 ml fresh medium and the cfu/ml was determined by serial dilution (10-fold) and plating on broth agar plate. Colonies was counted and cfu/ml was calculated.
(§4) Inhibition studies were performed in 96-well plates containing 200 μl Mpn culture (approximately 10^6 cfu ml^-1) in Hayflick’s medium and 200 μl each compound in series dilutions (2-fold) with the growth medium, with three to four replicas. The plates were sealed with clear adhesive sheets and incubated at 37°C incubator. Absorbance ratio at 450 nm and 560 nm was used as Mpn growth index, which was measured daily, and by visual detection for at least 8 days, as previously described. […] The MICs (minimal inhibitory concentration required to inhibit Mpn growth to 90%) were determined as the lowest concentration at which the growth index was ≈ 10% of the control values (at the time when the control culture medium color turned yellow), essentially as described.

For test [3], the target named is T1, human TK1 (Homo sapiens, UniProt P04183).
T1 construct: made in house
T1 sequence (P04183 1-234): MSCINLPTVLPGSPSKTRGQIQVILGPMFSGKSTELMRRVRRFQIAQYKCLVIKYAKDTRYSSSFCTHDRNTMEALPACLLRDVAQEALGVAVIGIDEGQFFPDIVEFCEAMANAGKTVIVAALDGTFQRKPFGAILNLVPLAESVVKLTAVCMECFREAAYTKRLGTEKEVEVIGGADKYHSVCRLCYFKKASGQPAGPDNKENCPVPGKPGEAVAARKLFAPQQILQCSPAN
Nature of the test: TFT phosphorylation kinetics, phosphoryl transfer assay. It is filed as biochemical. The following applies: 100 μM [γ-32P]-ATP. The method, then: (§5) Figure 3 Substrate saturation curves of TFT with human TK2 (A), human TK1 (B), and Ureaplasma TK (C). Kinetic assays with TFT were performed by using [γ-^32P]-ATP as the labelled substrate at fixed concentration and variable concentrations of TFT. The reaction products were separated by thin layer chromatography, and quantified as described in the experimental procedures.
(§6) Kinetic parameters for TFT were determined by using the phosphoryl transfer assays as previously described. Briefly, each reaction was performed in a total volume of 20 μl containing 50 mM Tris/HCl, pH 7.5, 0.5 mg/ml BSA, 5 mM DTT, 2 mM MgCl2, 15 mM NaF, variable concentrations of TFT, 0.1 mM [γ-^32P]-ATP, and 50 ng purified enzyme at 37°C for 20 min, and stopped by heating at 70°C for 2 min. After brief centrifugation, 1 μl supernatant was spotted onto a TLC plate (PEI-cellulose, Merck) and dried. The TLC plates were developed in isobutyric acid/ammonia/H2O (66:1:33). The reaction products were visualized and quantified by phosphoimaging analysis (Quantity One, Bio-Rad).

Test [4] deals with T2, Ureaplasma TK (Ureaplasma parvum serovar 3, UniProt Q9PPP5).
T2 construct: made in house
T2 sequence (Q9PPP5 1-223): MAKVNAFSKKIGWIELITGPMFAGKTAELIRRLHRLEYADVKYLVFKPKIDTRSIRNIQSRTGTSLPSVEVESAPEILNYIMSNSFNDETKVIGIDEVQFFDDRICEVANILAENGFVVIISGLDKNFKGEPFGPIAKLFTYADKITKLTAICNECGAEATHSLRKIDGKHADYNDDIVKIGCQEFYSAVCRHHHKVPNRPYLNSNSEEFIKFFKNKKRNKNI
Described as above. As to conditions: 100 μM [γ-32P]-ATP. Format: biochemical. The method, then: as §5, §6

Test [5] has as its system Mpn TK. Nature of the test: TK activity in total protein extracts of Mpn cultured with TFT. It is filed as cell-based, Mycoplasma pneumoniae. The following applies: 10 μM TFT, 70 hours culture. The method, then:
Total proteins were extracted from these cultures and used to determine the TK and TS activity.
Mpn wild type cells were cultured in the presence of [^3H]-dT and different concentrations of TFT. The cells were incubated at 37°C for 70 hours and harvested. The total uptake and incorporation of [^3H]-dT were analysed, and TK and TS activity were determined in total protein extracts.
To determine the effect of TFT on TK and TS activity, Mpn wild type cells were cultured in 75 cm^2 tissue culture flasks containing 50 ml medium, inoculated with 3 ml of stock culture (1 × 10^9 cfu/ml), in the presence of [^3H]-dT (1 μCi ml^-1) and different concentrations of TFT. After 70 hours at 37°C the cultures were harvested and divided to two aliquots, one was used to determine total uptake/metabolism of radiolabeled dT and total proteins were extracted from the other aliquot and used to measure TK and TS activity using [^3H]-dT and [5-^3H]-dUMP as substrates.

In test [6] the test system is M. pneumoniae wild type (laboratory strain M129). Description: Mpn growth inhibition in 96-well plates (growth index A450/A560), wild type strain. It is filed as cell-based, Mycoplasma pneumoniae. The following applies: for MIC (Mpn growth): as stated in the text, strain not specified, 90% growth inhibition. The procedure:
as §1, §2, §3, §4

The mark [7] stands for this setting: 10 μM analog, 70 hours, 37°C, radioactivity in cells / total added.
Where [8] appears, read: 10 μM analog, 70 hours, acid insoluble fraction / total in cells.

The structures appear in SMILES notation. Values after ≈ are worked out from the molar mass of the structure shown.

For `O=c1[nH]c(=O)n([C@H]2C[C@H](O)[C@@H](CO)O2)cc1C(F)(F)F` [Trifluorothymidine (TFT), Trifluorothymidine], the “Stimulation of [3H]-dT uptake” value in test [1] (10 μM analog versus control) was 2 fold. Further, in test [1] (setting [7]), the “[3H]-Ade Total uptake” value came to 0.43±0.01%, the “[3H]-Gua Total uptake” value amounted to 0.19±0.02%, the “[3H]-Hx Total uptake” value was 0.011± 0.001% and the “[3H]-Ura Total uptake” value was 0.11±0.002%. Also, in test [1] (setting [7]), the “[3H]-dT Total uptake” value is on record as 18.2±0.6%. In test [1] (setting [8]), the “[3H]-Ade Incorporation” value is given as 48±2%, the “[3H]-Gua Incorporation” value was 85±4%, the “[3H]-Hx Incorporation” value worked out at 67±1% and the “[3H]-Ura Incorporation” value was 27±0.2%. Also, in test [1] (setting [8]), the “[3H]-dT Incorporation” value was determined as 97.4±0.5%. The “thyA mutant MIC” value in test [2] came to 1.8 µg/mL. In test [3], the kcat was determined as 0.043 ± 0.003 s⁻¹. The Km in test [3] (TFT 1 – 100 μM) is 5.9 ± 1.7 µM. Further, the kcat in test [4] was 0.055 ± 0.008 s⁻¹. In addition, the Km in test [4] (TFT 1 – 100 μM) came out at 9.9 ± 5.2 µM. Further, the “TK activity relative to controls” value in test [5] is reported as ~ 3 times. Also, in test [6] (listed as trifluorothymidine), the “MIC (Mpn growth)” value is listed as “approximately 2 μg ml^-1”. The “MIC (Mpn growth)” value in test [6] (listed as trifluorothymidine (TFT)) was determined as 1.8 µg/mL (≈ 6.08 µM). Also, the “Wild type MIC” value in test [6] (minimal concentration producing 90% inhibition, wild type Mpn) came out at 1.8 µg/mL.

By kcat is commonly meant the number of substrate molecules converted per active site and unit of time at saturation. As usually defined, the Km is the substrate concentration at which the rate is half of its maximum.
